Measured values reported in article PMC6522510 (Nature Communications, 2019).
Read-outs that look alike come from different tables or passages of the source.

Tests used:
Parameters in all cases: species or system AML cell lines (8); Primary HTS, single concentration about 10 uM, Cell Titer Glo viability; log10 luminescence, per cent inhibition relative to cycloheximide control
Details in all cases: 72 h, inhibitor
CHRF288-11 = system: CHRF288-11
CMS = system: CMS
ML-2 = system: ML-2
MV4-11 = system: MV4-11
MOLM-13 = system: MOLM-13
M07e = system: M07e
U937 = system: U937
CMK = system: CMK
[1] = relative to cycloheximide control, log10 luminescence

SMILES | CHRF288-11 %inh (CHRF288-11; [1]) [%] | CMS %inh (CMS; [1]) [%] | ML-2 %inh (ML-2; [1]) [%] | MV4-11 %inh (MV4-11; [1]) [%] | MOLM-13 %inh (MOLM-13; [1]) [%] | M07e %inh (M07e; [1]) [%] | U937 %inh (U937; [1]) [%] | CMK %inh (CMK; [1]) [%] | CHRF288-11 %inh (CHRF288-11; 10 µM) [%] | CMS %inh (CMS; 10 µM) [%] | ML-2 %inh (ML-2; 10 µM) [%] | MV4-11 %inh (MV4-11; 10 µM) [%] | MOLM-13 %inh (MOLM-13; 10 µM) [%] | M07e %inh (M07e; 10 µM) [%] | U937 %inh (U937; 10 µM) [%] | CMK %inh (CMK; 10 µM) [%]
Fc1ccc(-c2c(-c3ccncc3)nc3n2CCS3)cc1 [SJ000573197-1, EXSB/CR-9802-49AZ] | 6.614 | 6.192 | 4.223 | 10.89 | -3.2 | 1.347 | 19.21 | 1.128 | – | – | – | – | – | – | – | –
CS(=O)(=O)Nc1ccc(-c2ccc3c(NC(=O)C4CC4)n[nH]c3c2)cc1 [SJ000573198-1, VB100064-183A1] | 1.64 | -0.1456 | 1.388 | 1.756 | 0.3925 | 7.577 | -2.07 | 0.4517 | – | – | – | – | – | – | – | –
CN(C)CCCNc1nccc(-c2c(-c3ccc(F)cc3)nn3cc(C(F)(F)F)ccc23)n1 [SJ000573200-1, U14929/105/1] | 4.716 | -0.7094 | 2.988 | 2.615 | 3.151 | 5.185 | 2.291 | 6.318 | – | – | – | – | – | – | – | –
CCN1CCC(C(=O)Nc2n[nH]c3nnc(-c4cccc(F)c4F)cc23)CC1 [SJ000573202-1, JW48822-155B0] | 19.17 | 98.67 | 2.893 | 52.48 | 18.95 | 22.9 | 29.66 | 106.6 | – | – | – | – | – | – | – | –
CCn1c(-c2nonc2N)nc2ccncc21 [SJ000573203-1, JS100940-045A1] | 39.85 | -0.06255 | 2.303 | -1.945 | 0.1335 | -2.227 | 1.08 | 40.02 | – | – | – | – | – | – | – | –
NS(=O)(=O)c1cccc(-c2ccc3c(NC(=O)C4CC4)n[nH]c3c2)c1 [SJ000573205-1, VB100064-175A1] | 4.666 | -2.181 | 8.415 | 1.069 | 11.82 | -1.196 | 7.36 | 1.524 | – | – | – | – | – | – | – | –
COC(=O)c1cncc(/C=C/c2c(C)cc(O)cc2C)c1 [SJ000573206-1, U12614/140/1] | 31.61 | 1.868 | 4.986 | 6.215 | 1.326 | 18.22 | 23.01 | 80.78 | – | – | – | – | – | – | – | –
CCCN(CCS(C)(=O)=O)Cc1ccc(-c2ccc3ncnc(Nc4ccc(OCc5cccc(F)c5)c(Cl)c4)c3c2)o1 [SJ000573207-1, U16419/108/1] | 4.347 | -1.914 | 1.001 | 1.09 | 2.051 | -0.08315 | 4.462 | 1.892 | – | – | – | – | – | – | – | –
CS(=O)(=O)CCNCc1nc(-c2ccc3ncnc(Nc4ccc(F)c(Cl)c4)c3c2)cs1 [SJ000573208-1, R2677/150/1] | 0.6669 | 3.363 | 0.9399 | 1.268 | 1.729 | 1.192 | -0.3412 | 3.345 | – | – | – | – | – | – | – | –
O=C(Nc1n[nH]c2nnc(-c3cccnc3)cc12)C1CC1 [SJ000573209-1, VB49227-069A2] | – | – | – | – | – | – | – | – | 36.24 | 99.51 | 10.24 | 53.21 | 58.37 | 20.82 | 14.39 | 119.5
COc1ccc2ncnc(Nc3ccc(OCc4ccccc4)cc3)c2c1 [SJ000573210-1, 0142W 95C*D] | -3.911 | 0.3657 | -0.6695 | 1.39 | 13.25 | -3.821 | -0.1655 | 1.162 | – | – | – | – | – | – | – | –
CCn1c(-c2nonc2N)nc2cncc(C(=O)N3CC[C@H](N)C3)c21 [SJ000573211-1, MH203936-065A1] | 24.28 | 6.352 | 13.35 | 35.54 | 12.04 | 8.501 | 24.07 | 50.04 | – | – | – | – | – | – | – | –
CC1=C(C(=O)Nc2ccc3[nH]ncc3c2)C(c2ccc(F)cc2)NC(=O)N1 (stereo not shown) [SJ000573212-1, SD203460-064A1] | 14.28 | 3.347 | 7.379 | 13.33 | -1.98 | 2.046 | 0.2192 | 22.73 | – | – | – | – | – | – | – | –
O=C1Nc2ccc(-c3cccnc3)cc2C1=Cc1cc(Br)c(O)c(Br)c1 [SJ000573213-1, R10489/16/2] | 4.693 | -1.986 | 4.287 | -0.07867 | 4.678 | 2.589 | -1.775 | 0.4308 | – | – | – | – | – | – | – | –
CCNC(=O)O[C@H]1CN[C@H](C#Cc2cc3ncnc(Nc4ccc(OCc5cccc(F)c5)c(Cl)c4)c3s2)C1 [SJ000573214-1, U20348/125/4] | 5.639 | 3.079 | 3.073 | 0.06144 | 0.5641 | 3.561 | -0.8245 | -1.307 | – | – | – | – | – | – | – | –
O=C(O[C@H]1CN[C@H](C#Cc2cc3ncnc(Nc4ccc5c(cnn5Cc5ccccc5)c4)c3s2)C1)N1CCOCC1 [SJ000573215-1, U19635/172/2] | 51 | 5.16 | 2.941 | 1.975 | 2.242 | -0.8707 | 3.001 | 78.93 | – | – | – | – | – | – | – | –
COc1cccc(-n2ncc3c(N/N=C/c4cccc(F)c4)ncnc32)c1 [SJ000573217-1, U18028/186/1] | -0.7991 | 0.08051 | 0.8639 | -3.164 | -3.305 | -2.637 | -3.323 | -7.034 | – | – | – | – | – | – | – | –
COc1ccc2[nH]c3c4[nH]c5ccc(OC)cc5c4c4c(c3c2c1)C(=O)NC4=O [SJ000573218-1, 3744W 92C*D] | 13.67 | 16.49 | 9.324 | 76.35 | 81.75 | 25.27 | 14.28 | 26.51 | – | – | – | – | – | – | – | –
COc1cccc(-n2ncc3c(N/N=C/c4ccc(F)cc4)ncnc32)c1 [SJ000573219-1, U18028/188/1] | -1.076 | 1.318 | 1.489 | -2.52 | 0.1437 | 4.179 | -0.8072 | -2.994 | – | – | – | – | – | – | – | –
COc1ccc(-c2cc3c(N)ncnc3o2)cc1 [SJ000573220-1, R6872/65/2] | 23.46 | 5.247 | 2.103 | -2.253 | 4.813 | 10.8 | -1.174 | 5.591 | – | – | – | – | – | – | – | –
CN1CCC(n2cnc(-c3ccc(F)cc3)c2-c2ccnc(N)n2)CC1 [SJ000573221-1, JB19236-039E1] | 35.57 | 5.129 | 19.36 | 16.49 | 26.24 | 20.04 | 13.28 | 38.27 | – | – | – | – | – | – | – | –
CCn1c(-c2nonc2N)nc2cnc(Oc3cccc(NC(=O)c4ccc(OCCN5CCOCC5)cc4)c3)cc21 [SJ000573222-1, HC204505-099A1] | 16.4 | 9.487 | 11.73 | 34.29 | 15.66 | -2.093 | 38.21 | 59.96 | – | – | – | – | – | – | – | –
c1ccc(-c2n[nH]cc2-c2ccnc(-c3ccc(OCCn4ccnc4)cc3)c2)nc1 [SJ000573223-1, FVLN/241/112/1] | 4.882 | -2.708 | -0.7623 | 2.943 | 3.444 | -2.852 | -2.834 | 2.62 | – | – | – | – | – | – | – | –
